Each block holds one molecule with its values, some of them ahead of it. The source made the active and inactive calls. The rule behind the calls is not given here.
Legend:
[1] = target: T1, Endothelial PAS domain-containing protein 1 (Homo sapiens, UniProt Q99814); experiment: Inhibition of HIF2alpha in human 786-0 cells expressing truncated HIF1alpha assessed as reduction in luciferase activity after 24 hrs by reporter gene assay; format: cell-based
[2] = Downregulation of CCND1 mRNA expression in human SK-RC-28 cells after 48 hrs by RT-PCR analysis; format: functional, cell-based
[3] = Downregulation of HIF2alpha mRNA expression in human SK-RC-28 cells after 48 hrs by RT-PCR analysis; format: functional, cell-based
[4] = Downregulation of HIF1alpha mRNA expression in human RCC4 cells after 48 hrs by RT-PCR analysis; format: functional, cell-based
[5] = target: T1, Endothelial PAS domain-containing protein 1; experiment: Inhibition of HIF2alpha in human 786-0 cells assessed as reduction in CCND1 mRNA expression after 48 hrs by RT-PCR analysis; format: cell-based
[6] = target: Hypoxia-inducible factor 1-alpha (Homo sapiens) (UniProt Q16665); experiment: Inhibition of HIF1alpha in human SK-RC-28 cells assessed as reduction in carbonic anhydrase 9 expression after 48 hrs by RT-PCR analysis; format: cell-based
[7] = target: T1, Endothelial PAS domain-containing protein 1; experiment: Inhibition of HIF2alpha in human RCC4 cells coexpressing HIF1alpha assessed as reduction in TGFalpha mRNA expression after 48 hrs by RT-PCR analysis; format: cell-based
[8] = Downregulation of HIF2alpha mRNA expression in human RCC4 cells after 48 hrs by RT-PCR analysis; format: functional, cell-based
[9] = Downregulation of GLUT1 mRNA expression in human SK-RC-28 cells after 48 hrs by RT-PCR analysis; format: functional, cell-based
[10] = target: T1, Endothelial PAS domain-containing protein 1; experiment: Inhibition of HIF2alpha in human 786-0 cells assessed as reduction in VEGFA after 48 hrs by RT-PCR analysis; format: cell-based
[11] = target: T1, Endothelial PAS domain-containing protein 1; experiment: Inhibition of HIF2alpha in human RCC4 cells coexpressing HIF1alpha assessed as reduction in GLUT1 mRNA expression after 48 hrs by RT-PCR analysis; format: cell-based
786-0 [12] = experiment: Down regulation of carbonic anhydrase 9 expression in human 786-0 cells after 48 hrs by RT-PCR analysis; format: functional, cell-based
786-0 [13] = experiment: Downregulation of HIF2alpha mRNA expression in human 786-0 cells after 48 hrs by RT-PCR analysis; format: functional, cell-based
[14] = target: T1, Endothelial PAS domain-containing protein 1; experiment: Inhibition of HIF2alpha in human 786-0 cells assessed as reduction in GLUT1 mRNA expression after 48 hrs by RT-PCR analysis; format: cell-based
[15] = target: Hypoxia inducible factors; HIF-1-alpha, HIF-2-alpha (Homo sapiens) (UniProt Q16665+Q99814); experiment: Inhibition of HIF1alpha/2alpha in human RCC4 cells assessed as reduction in VEGFA mRNA expression after 48 hrs by RT-PCR analysis; format: cell-based
[16] = Downregulation of TGFalpha mRNA expression in human SK-RC-28 cells after 48 hrs by RT-PCR analysis; format: functional, cell-based
[17] = target: T1, Endothelial PAS domain-containing protein 1; experiment: Inhibition of HIF2alpha in human 786-0 cells assessed as reduction in TGFalpha mRNA expression after 48 hrs by RT-PCR analysis; format: cell-based
[18] = Downregulation of HIF1alpha mRNA expression in human SK-RC-28 cells after 48 hrs by RT-PCR analysis; format: functional, cell-based
786-0 [19] = experiment: Downregulation of HIF1alpha mRNA expression in human 786-0 cells after 48 hrs by RT-PCR analysis; format: functional, cell-based
[20] = target: Hypoxia-inducible factor 1-alpha (Homo sapiens) (UniProt Q16665); experiment: Inhibition of HIF1alpha in human RCC4 cells coexpressing HIF2alpha assessed as decrease in carbonic anhydrase 9 mRNA expression after 48 hrs by RT-PCR analysis; format: cell-based
[21] = target: T1, Endothelial PAS domain-containing protein 1; experiment: Inhibition of HIF2alpha in human RCC4 cells coexpressing HIF1alpha assessed as reduction in CCND1 mRNA expression after 48 hrs by RT-PCR analysis; format: cell-based
[22] = target: Hypoxia-inducible factor 1-alpha (Homo sapiens) (UniProt Q16665); experiment: Inhibition of HIF1alpha in human SK-RC-28 cells assessed as reduction in VEGFA after 48 hrs by RT-PCR analysis; format: cell-based

T1 sequence (Q99814 whole entry, the tested form may be a part): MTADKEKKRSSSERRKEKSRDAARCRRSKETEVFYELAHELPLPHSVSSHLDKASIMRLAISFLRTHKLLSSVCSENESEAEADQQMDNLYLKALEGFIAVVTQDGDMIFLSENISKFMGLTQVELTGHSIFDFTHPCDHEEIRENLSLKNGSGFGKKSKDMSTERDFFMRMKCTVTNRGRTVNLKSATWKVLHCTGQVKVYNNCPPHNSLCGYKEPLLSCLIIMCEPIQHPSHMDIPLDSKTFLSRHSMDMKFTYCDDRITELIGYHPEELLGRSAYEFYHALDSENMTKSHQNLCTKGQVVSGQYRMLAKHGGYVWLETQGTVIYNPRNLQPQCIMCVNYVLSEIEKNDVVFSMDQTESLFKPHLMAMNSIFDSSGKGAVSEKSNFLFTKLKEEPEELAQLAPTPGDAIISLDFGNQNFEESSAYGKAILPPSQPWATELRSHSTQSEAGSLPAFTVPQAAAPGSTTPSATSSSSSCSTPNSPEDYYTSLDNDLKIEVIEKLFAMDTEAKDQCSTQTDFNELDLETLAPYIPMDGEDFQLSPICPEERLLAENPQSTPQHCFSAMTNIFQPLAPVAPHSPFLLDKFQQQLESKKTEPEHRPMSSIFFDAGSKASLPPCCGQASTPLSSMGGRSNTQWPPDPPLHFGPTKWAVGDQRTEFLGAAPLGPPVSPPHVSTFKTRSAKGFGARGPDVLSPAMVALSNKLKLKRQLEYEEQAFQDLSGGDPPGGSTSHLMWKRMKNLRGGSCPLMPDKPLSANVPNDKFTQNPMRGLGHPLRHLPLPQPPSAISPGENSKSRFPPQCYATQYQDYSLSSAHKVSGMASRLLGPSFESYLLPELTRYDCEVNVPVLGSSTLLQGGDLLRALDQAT
Hypoxia-inducible factor 1-alpha (Homo sapiens), sequence (Q16665 whole entry, looked up, the tested form may be a part): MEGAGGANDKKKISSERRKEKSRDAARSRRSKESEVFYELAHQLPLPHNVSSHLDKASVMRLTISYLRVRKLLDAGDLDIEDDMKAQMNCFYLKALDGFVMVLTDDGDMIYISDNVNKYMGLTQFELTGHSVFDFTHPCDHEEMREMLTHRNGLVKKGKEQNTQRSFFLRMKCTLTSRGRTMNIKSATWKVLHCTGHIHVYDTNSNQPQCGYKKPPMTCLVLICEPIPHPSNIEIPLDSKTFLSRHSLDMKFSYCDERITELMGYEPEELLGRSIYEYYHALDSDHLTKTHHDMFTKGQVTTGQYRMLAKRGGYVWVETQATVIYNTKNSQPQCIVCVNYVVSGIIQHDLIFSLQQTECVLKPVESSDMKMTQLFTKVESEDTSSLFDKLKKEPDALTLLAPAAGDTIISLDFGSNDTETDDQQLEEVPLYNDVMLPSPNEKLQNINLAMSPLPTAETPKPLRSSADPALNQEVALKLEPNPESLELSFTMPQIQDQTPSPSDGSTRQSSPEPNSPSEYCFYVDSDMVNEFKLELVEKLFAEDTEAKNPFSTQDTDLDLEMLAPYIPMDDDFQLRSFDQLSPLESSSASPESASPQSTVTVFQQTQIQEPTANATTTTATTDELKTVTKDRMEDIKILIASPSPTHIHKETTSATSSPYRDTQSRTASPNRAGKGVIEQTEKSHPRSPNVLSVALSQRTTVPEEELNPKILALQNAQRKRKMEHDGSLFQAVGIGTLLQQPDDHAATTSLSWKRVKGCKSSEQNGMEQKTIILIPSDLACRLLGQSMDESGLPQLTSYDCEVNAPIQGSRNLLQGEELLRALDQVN

- EC50 [1]: > 100 µM
SMILES: COc1cc2ccnc3c2c(c1OC)NC=C3 [AAPTAMINE]

- EC50 [1]: 4.2 µM
SMILES: CC(=O)O[C@H]1C[C@H]2[C@@](C)(CC[C@H]3C(C)(C)CCC[C@@]32C=O)[C@@H]2CC=C(C(C)=O)[C@H](C=O)[C@@]12C

- inhibition [5]: inactive
- inhibition [6]: inactive
- inhibition [7]: inactive
- inhibition [10]: inactive
- inhibition [11]: inactive
- inhibition [14]: inactive
- inhibition [15]: inactive
- EC50 [1]: > 100 µM
- inhibition [17]: inactive
- inhibition [20]: inactive
- inhibition [21]: inactive
- inhibition [22]: inactive
SMILES: C/C=C(/C)C(=O)OCc1nccc2c1C(=O)C(O)=C(C)C2=O
- Activity [2]: inactive
- Activity [3]: inactive
- Activity [4]: inactive
- Activity [8]: inactive
- Activity [9]: inactive
- Activity (786-0 [12]): inactive
- Activity (786-0 [13]): inactive
- Activity [16]: inactive
- Activity [18]: inactive
- Activity (786-0 [19]): inactive

— ChEMBL document CHEMBL2177034, “Inhibition of hypoxia inducible factor-2 transcription: isolation of active modulators from marine sponges” (J Nat Prod, 2012)
